One data set relates to B. cenocepacia J2315. Type of data set: cell-based, Burkholderia cenocepacia. The conditions noted are these: 48 h. The text has this:
(§1) Bacteria used in this study were Escherichia coli ATCC 25922 and O18K1H7, Staphylococcus aureus ATCC 25923 and ATCC 29213, Pseudomonas aeruginosa ATCC 27853, Staphylococcus epidermidis ATCC 12228, Enterococcus faecalis ATCC 29212, Bacillus subtilis DSM 4181, Listeria monocytogenes DSM 20600, Salmonella typhimurium ATCC 14028, Acinetobacter baumannii ATCC 19606 and 17978, Klebsiella pneumoniae ATCC 13883 and 700603, Stenotrophomonas maltophilia ATCC 13637 and Burkholderia cenocepacia J2315. In addition to reference strains, a clinical isolate of E. faecalis vancomycin-resistant (VREF, strain M), and three clinical isolates of S. aureus methicillin-resistant (MRSA, strains E, G and 11), kindly provided by Dr. Lucilla Dolzani, were used. All MRSA strains are resistant to GEN, IPM, OXA, PEN, CIP and CEF; the S. aureus E strain is also resistant to CLI and ERY. VREF strain is resistant to AMK, ATM, GEN, NET, PEN, TEC, TET, TOB and VAN.
(§2) For the assays, overnight bacterial cultures were diluted 1:30 in fresh Mueller-Hinton Broth (MHB, Difco) and incubated at 37°C with shaking for approximately 2h.
(§3) The antimicrobial activity of USCLs was determined by the Minimum Inhibitory Concentration (MIC) assay, according to the guidelines of CLSI (Clinical & Laboratory Standards Institute) and described in [30, 31]. Briefly, the assays were performed in 96-well microplates in appropriate broth (MHB or SAB). […] […] The fungal suspension in SAB broth was used at a final concentration of 5 × 10^4 cells/mL. Microplates were then incubated at 30°C for 48h. The MIC value was taken as the lowest concentration of USCLs resulting in the complete inhibition of visible bacterial or fungal growth after appropriate incubation time. Results derive from at least three independent experiments carried out in duplicate.

Data set [1] concerns S. epidermidis ATCC 12228. The data set is classed as cell-based, Staphylococcus epidermidis. Conditions: ATCC 12228, 24 h.
From the text: as §1, §2
The antimicrobial activity of USCLs was determined by the Minimum Inhibitory Concentration (MIC) assay, according to the guidelines of CLSI (Clinical & Laboratory Standards Institute) and described in [30, 31]. […]

A further data set concerns A. baumannii ATCC 19606. The data set is classed as cell-based, Acinetobacter baumannii. The conditions noted are these: ATCC 19606, 24 h.
From the text: as §1, §2
(§4) The antimicrobial activity of USCLs was determined by the Minimum Inhibitory Concentration (MIC) assay, according to the guidelines of CLSI (Clinical & Laboratory Standards Institute) and described in [30, 31]. Briefly, the assays were performed in 96-well microplates in appropriate broth (MHB or SAB). […] For bacteria, a mid-log phase bacterial suspension at 2.5 × 10^5 CFU/mL in MHB was used, and the microplates incubated at 37°C for 24h. The fungal suspension in SAB broth was used at a final concentration of 5 × 10^4 cells/mL. Microplates were then incubated at 30°C for 48h. The MIC value was taken as the lowest concentration of USCLs resulting in the complete inhibition of visible bacterial or fungal growth after appropriate incubation time. Results derive from at least three independent experiments carried out in duplicate.

For another data set, the system named is A. baumannii ATCC 17978. The data set is classed as cell-based, Acinetobacter baumannii. The conditions noted are these: ATCC 17978, 24 h.
From the text: as §1, §2, §4

For data set [2], the system named is S. typhimurium ATCC 14028. Type of data set: cell-based, Salmonella typhimurium. Conditions: ATCC 14028, 24 h.
From the text: as §1, §2, §4

A further data set relates to K. pneumoniae ATCC 13883. Type of data set: cell-based, Klebsiella pneumoniae. Conditions: ATCC 13883, 24 h.
From the text: as §1, §2, §4

Data set [3] deals with K. pneumoniae ATCC 700603. The data set is classed as cell-based, Klebsiella pneumoniae. The conditions noted are these: ATCC 700603, 24 h.
From the text: as §1, §2, §4

In data set [4] the test system is S. aureus G (MRSA clinical isolate). The data set is classed as cell-based, Staphylococcus aureus. The conditions noted are these: G ( clinical isolate, 24 h).
From the text: as §1, §2, §4

Another data set deals with S. aureus ATCC 29213. Type of data set: cell-based, Staphylococcus aureus. Conditions: ATCC 29213, 24 h.
From the text: as §1, §2, §4

Data set [5] deals with S. aureus E (MRSA clinical isolate). Type of data set: cell-based, Staphylococcus aureus. The conditions noted are these: E ( clinical isolate, 24 h).
From the text: as §1, §2, §4

Data set [6] has as its system L. monocytogenes DSM 20600. Type of data set: cell-based, Listeria monocytogenes. The conditions noted are these: DSM 20600, 24 h.
From the text: as §1, §2, §4

A short description of data set [7]: RP-HPLC retention time (hydrophobicity). Conditions: stated to reliably reflect the hydrophobicity in aqueous solution, assessed and provided by GenScript. Type of data set: physicochemical. The method, then: GenScript (Piscataway, NJ, USA) carried out the custom synthesis of USCLs by using high efficient solid phase peptide synthesis. The fatty acid was conjugated to the N-terminus of the peptide using the same procedure followed to attach protected amino acids to the growing peptide chain for synthesis. The purity (>90%), sequence and molecular weight of USCLs were assessed and provided by GenScript using RP-HPLC and ESI-MS. USCLs were dissolved in sterile water or DMSO at 10 mg/mL, according to manufacturer's indications.

Data set [8] concerns E. faecalis M (VREF clinical isolate). The data set is classed as cell-based, Enterococcus faecalis. The conditions noted are these: M (VREF clinical isolate, 24 h).
From the text: as §1, §2, §4

For a further data set, the system named is E. faecalis ATCC 29212. Type of data set: cell-based, Enterococcus faecalis. Conditions: ATCC 29212, 24 h.
From the text: as §1, §2, §4

A further data set has as its system E. coli O18K1H7. The data set is classed as cell-based, Escherichia coli. Conditions: O18K1H7, 24 h.
From the text: as §1, §2, §4

The next data set deals with B. subtilis DSM 4181. The data set is classed as cell-based, Bacillus subtilis. Conditions: DSM 4181, 24 h.
From the text: as §1, §2, §4

Data set [9] has as its system S. maltophilia ATCC 13637. Type of data set: cell-based, Stenotrophomonas maltophilia. Conditions: ATCC 13637, 48 h.
From the text: as §1, §2, §3

The next data set relates to C. albicans SC 5314. The data set is classed as cell-based, Candida albicans. Conditions: SC 5314, 48 h. The method, then:
(§5) Fungal strains used were Candida albicans ATCC 90029 and SC5314. Fungi were grown on Sabouraud dextrose (SAB, Difco) agar plates at 30°C for 48h. The initial fungal inoculum was prepared by picking and suspending five colonies in 5 mL of sterile PBS.
as §4

For a further data set, the system named is C. albicans ATCC 90029. Type of data set: cell-based, Candida albicans. The conditions noted are these: ATCC 90029, 48 h. The method, then:
as §5, §4

For data set [10], the system named is S. aureus 11 (MRSA clinical isolate). Type of data set: cell-based, Staphylococcus aureus. The conditions noted are these: 11 ( clinical isolate, 24 h).
From the text: as §1, §2, §4

In a further data set the test system is S. aureus ATCC 25923. The data set is classed as cell-based, Staphylococcus aureus. The conditions noted are these: ATCC 25923, 24 h.
From the text: as §1, §2, §4

In brackets after ≈: the same amount, converted by molar mass. Where a SMILES comes first, the peptide text is derived from it. The star is where a group is joined. Lauroyl = CCCCCCCCCCCC(=O)*

By MIC is commonly meant the smallest concentration in the dilution series that meets the test's criterion for growth inhibition.

For `CCCCCCCCCCCC(=O)N[C@@H](CCCNC(=N)N)C(=O)N[C@H](C(=O)N[C@@H](Cc1c[nH]c2ccccc12)C(=O)N[C@@H](CCCNC(=N)N)C(N)=O)[C@@H](C)CC` [Lp-I] (Lauroyl-RIWR-NH2), the MIC was 12.5 µg/mL (≈ 15.4 µM) with B. cenocepacia J2315; 3.125 µg/mL (≈ 3.85 µM) in [1]; 25 µg/mL (≈ 30.8 µM) against A. baumannii ATCC 19606; 25 µg/mL (≈ 30.8 µM) against A. baumannii ATCC 17978; 25 µg/mL (≈ 30.8 µM) in data set [2]; 100 µg/mL (≈ 123 µM) in the data set on K. pneumoniae ATCC 13883. Besides, the minimum inhibitory concentration (MIC) amounted to 50 µg/mL (≈ 61.6 µM) in data set [3], 3.125 µg/mL (≈ 3.85 µM) in data set [4], 3.125 µg/mL (≈ 3.85 µM) in the data set with S. aureus ATCC 29213 and 3.125 µg/mL (≈ 3.85 µM) in data set [5].

As to `CCCCCCCCCCCC(=O)N[C@@H](CCCNC(=N)N)C(=O)N[C@@H](CCSC)C(=O)N[C@@H](Cc1c[nH]c2ccccc12)C(=O)N[C@@H](CCCNC(=N)N)C(N)=O` [Lp-M, Lau-RMWR-NH2] (Lauroyl-RMWR-NH2), the MIC with B. cenocepacia J2315 came out at 25 µg/mL (≈ 30.2 µM); in data set [1], 3.125 µg/mL (≈ 3.77 µM); in data set [6] it was 3.125 µg/mL (≈ 3.77 µM); against A. baumannii ATCC 19606 it was 25 µg/mL (≈ 30.2 µM); with A. baumannii ATCC 17978, 25 µg/mL (≈ 30.2 µM); in data set [8], 12.5 µg/mL (≈ 15.1 µM). Besides, the MIC in the data set with E. faecalis ATCC 29212 was 6.25 µg/mL (≈ 7.54 µM); in the data set on E. coli O18K1H7, 25 µg/mL (≈ 30.2 µM); in the data set with K. pneumoniae ATCC 13883, above 100 µg/mL; in data set [3] it was 100 µg/mL (≈ 121 µM); against B. subtilis DSM 4181 it was 3.125 µg/mL (≈ 3.77 µM); in data set [9], 12.5 µg/mL (≈ 15.1 µM). Besides, the minimal inhibitory concentration (MIC) stood at 12.5 µg/mL (≈ 15.1 µM) against C. albicans SC 5314; 3.125 µg/mL (≈ 3.77 µM) against C. albicans ATCC 90029; 6.25 µg/mL (≈ 7.54 µM) in data set [10]; 6.25 µg/mL (≈ 7.54 µM) in the data set with S. aureus ATCC 25923; 6.25 µg/mL (≈ 7.54 µM) in data set [4]; 6.25 µg/mL (≈ 7.54 µM) in data set [5]. Further, the Retention time in data set [7] is given as 12.393 min.

Source of the values: paper PMC6383929, “Design, antimicrobial activity and mechanism of action of Arg-rich ultra-short cationic lipopeptides” (PLoS ONE, 2019).
